We go through one compound from paper PMC12037037 (Proceedings of the National Academy of Sciences of the …, 2025).

Test [1] deals with panel of 55 central nervous system targets. Briefly: Competitive radioligand binding selectivity panel (Eurofins Discovery). The procedure: Figure S3. Selectivity profiles for (+)-JRT and (–)-JRT across 55 central nervous system targets. The effects of (+)- JRT (10 μM) and (–)-JRT (10 μM) on a wide range of targets were assessed by Eurofins Discovery. Data represent % inhibition of the binding of a radioactively labeled ligand specific for each target. Assays were conducted in duplicate and the results were averaged.
Data Analysis and Statistics. Treatments were randomized, and data were analyzed by experimenters blinded to treatment conditions. Statistical analyses were performed using GraphPad Prism (version 10.0.3) unless noted otherwise.
All comparisons were planned prior to performing each experiment. No data were excluded. Data are represented as mean ± SEM, unless noted otherwise, with asterisks indicating *p < 0.05, **p < 0.01, ***p < 0.001, and ****p < 0.0001. Details of all statistical tests are shown in SI Appendix, Table S1. […]
Both (+)-JRT and (–)-
JRT were synthesized in-house and judged to be analytically pure based on NMR and LC-MS data. For cell culture experiments, VEH = 0.1% (agonist studies) or 0.2% (antagonist studies) molecular biology grade dimethyl sulfoxide (Sigma-Aldrich). For in vivo experiments, compounds were administered i.p. at 5 mL/kg using 0.9% saline as the vehicle, unless noted otherwise. VEH = USP grade saline (0.9%). Stock solutions for behavioral assays were prepared fresh before use.
Fumarate salts of (+)-JRT and (–)-JRT were used for all biological studies unless noted otherwise.
Animals. All experimental procedures involving animals were approved by the Institutional Animal Care and Use Committee (IACUC) at the University of California, Davis, the Salk Institute, Weill Cornell Medicine, McLean Hospital (Harvard Medical School), or the Contract Research Organization (CRO) where the study was performed. All procedures involving animals adhered to principles described in the National Institutes of Health Guide for the Care and Use of Laboratory Animals.
Animals were either obtained from Jackson Laboratory (Sacramento, C.A.) or bred in-house unless noted otherwise. Power analyses were conducted to ensure appropriate sample sizes for all experiments involving animals. Animals were housed 2–5 animals of the same sex per cage on a 12h light/dark cycle and were given ad libitum access to food and water unless noted otherwise. The University of California, Davis, the Salk Institute, and Weill Cornell Medicine are accredited by the Association for Assessment and Accreditation of Laboratory Animal Care International (AAALAC). Whenever possible, both sexes were utilized. However, a single sex was utilized in some cases when 1) a contract research organization had only […]
Radioligand Binding Selectivity Panel. Competitive radioligand binding studies for (+)-JRT (10 μM) and (–)-JRT (10 μM) were performed across a panel of receptors at Eurofins Discovery. Experiments were performed using the free bases of […]
radioligand and source of receptor (5,6,7,8,9,10,11,12).
Radioligand Binding Assays (5-HT2AR and 5-HT2CR). The 5-HT2AR and 5-HT2CR competitive radioligand binding assays were performed at Epics Therapeutics S.A. (Belgium, FAST-0505B) using conventional methods. Experiments were performed using the free bases of (+)-JRT and (–)-JRT. […] Nonspecific binding was determined by co-incubation with 200-fold excess of cold competitor DOI. […]

Test [2] addresses 5-HT2A receptor membrane preparations obtained from PSYLI2 cells (Homo sapiens, UniProt P28223). In words: Ligand binding kinetics with [3H]-LSD on PSYLI2 membrane preparations. As to conditions: kinetics of competition binding vs [3H]-LSD.
Protocol: Ligand binding kinetics at the 5-HT2AR.
Data represent the mean ± SEM of 2–3 biological replicates.
Data represent the mean ± SEM of 2–4 biological replicates.
Binding buffer consisted of 50 mM Tris HCl, 10 mM MgCl2, 0.1 mM EDTA disodium dihydrate in autoclaved
deionized water. The solution was adjusted to pH 7.4 with 10 M NaOH(aq) and stored at 4 °C. This solution was used in
membrane preparation generation as well as competition and kinetics assays.
free, see 15) were grown in 15-cm plates with Dulbecco’s Modified Eagle Media (DMEM) containing 10% fetal bovine serum and 1% penicillin/streptomycin. When the cells were >90% confluent, the media was removed, and the cells were washed
with Dulbecco’s Phosphate Buffered Saline (DPBS) (15 mL). Next, DMEM (15 mL) lacking fetal bovine serum and
penicillin/streptomycin was added, and the cells were serum-starved for 4–12 hours. Roughly 10 mL of the DMEM was
removed, leaving ~5 mL of media in the plates before placing them on ice. Once on ice, the plates were scraped and the
contents were transferred to a pre-chilled 50 mL Falcon tube and then centrifuged (2,000 g, 10 min, 4 °C). The supernatant […]
of 0.25 mL to use for quantification of protein concentration via a Bradford assay with a Coomassie protein assay reagent. […]
For association binding experiments, total and nonspecific binding was determined by adding binding buffer (2.5X solution, […]

Chain of 5-HT2A receptor membrane preparations obtained from PSYLI2 cells (P28223 1-263 limits assumed): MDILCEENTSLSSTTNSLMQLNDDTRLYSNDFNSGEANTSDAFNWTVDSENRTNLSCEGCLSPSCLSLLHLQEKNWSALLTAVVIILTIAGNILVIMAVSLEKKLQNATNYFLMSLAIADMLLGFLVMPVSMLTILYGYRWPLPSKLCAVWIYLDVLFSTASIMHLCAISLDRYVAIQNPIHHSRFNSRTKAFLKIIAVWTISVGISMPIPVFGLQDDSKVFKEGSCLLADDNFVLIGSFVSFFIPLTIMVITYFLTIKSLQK
Chain of 5-HT2A receptor membrane preparations obtained from PSYLI2 cells (P28223 316-471 limits assumed): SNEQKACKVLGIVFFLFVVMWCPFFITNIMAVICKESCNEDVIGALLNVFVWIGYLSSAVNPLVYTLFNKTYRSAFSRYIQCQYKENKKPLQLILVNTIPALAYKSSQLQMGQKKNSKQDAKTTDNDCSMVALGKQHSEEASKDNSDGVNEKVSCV

As to `CCN(CC)C(=O)[C@@H]1C=C2c3cccc4ccn(c34)C[C@H]2N(C)C1` [(+)-JRT], the “Selectivity across panel of 55 central nervous system targets” value in test [1] (10 μM, free bases) is listed as “highly selective for a subset of serotonin receptors”. The “Affinity for dopamine, histamine, or adrenergic receptors” value in test [1] (radioligand binding, unlike LSD) was “neither of these compounds exhibited affinity”. Also, the “Affinity for dopamine, histamine, muscarinic, and adrenergic receptors” value in test [1] (unlike CLZ) is “lacks affinity”. In test [2], the “Dissociation rate from the 5-HT2A receptor, fold faster than LSD” value was “approximately 10 fold”.
